According to publication PMC12069643, “Structural insights into the selective recognition of RF-amide peptides by neuropeptide FF receptor 2” (EMBO Reports, 2025):

Assays:
human NPFFR2 = target: T1, human NPFFR2 (Homo sapiens, UniProt Q9Y5X5); test: GloSensor forskolin-stimulated cAMP assay, NPFFR2 wild-type; format: cell-based; details: HEK293T, 0.5 μM forskolin; for Emax: HEK-293T
T1 construct: expressed in transfected cells; host or cells: HEK293T (pcDNA3.1 NPFFR2)
Method: Figure 1 Structural analysis and downstream signaling of NPFFR2. (A) The concentration-dependent response of various agonists on NPFFR2 is measured using a forskolin-stimulated cAMP assay. Data points represent mean values from three independent experiments (each with technical triplicate), with error bars indicating SEM (standard error of the mean). Raw data were normalized to the vehicle-treated (0%) and 0.5 μM forskolin-treated (100%) responses. […] (C) The extracellular loop 2 (ECL2, pink) and N-terminus (Nt, blue) of NPFFR2 are depicted using a cartoon model. […] Source data are available online for this figure.
HEK293T cells were seeded at a density of 6 × 10^5 cells per well in a six-well cell culture plate (SPL) and co-transfected with expression plasmids encoding GloSensor™ and each NPFFR construct, using 1 µg to 4 µg of DNA per well according to the Lipofectamine™ 2000 Transfection Reagent (Invitrogen) protocol. After 48 h of incubation under standard conditions (37 °C, 5% CO2), the cells were detached using Accutase solution (Sigma-Aldrich) and washed with PBS. The cells were then pelleted by centrifugation, resuspended in CO2-independent medium (Gibco) supplemented with Firefly D-Luciferin (0.5 mg/ml, NanoLight), and distributed into a 96-well white plate (SPL). After a 2-hour incubation, serially diluted ligands and 0.5 μM forskolin were added to each well to detect ligand-induced signaling. Luminescence signals were measured using a Mithras LB940 instrument (Berthold) with a measurement time of 1 s per well.
(§1) Data from the GloSensor^TM cAMP signaling assays were analyzed using GraphPad Prism with a three-parameter logistic model to fit concentration-response curves for both wild-type (WT) and mutant receptors. Mutant expression levels and DNA amounts were adjusted to match WT conditions. ΔpEC50 values were calculated by subtracting the log EC50 of the WT receptor from that of each mutant. Results are presented as mean ± SEM from three independent biological replicates, each performed in duplicate or more. Error bars represent the SEM. Statistical significance was assessed using one-way ANOVA, followed by Dunnett’s tests comparisons to the WT receptor. Significance levels were reported as follows: ns (not significant, P > 0.05); *P < 0.05; **P < 0.01; ***P < 0.001.

[1] = target: T2, NPFFR1-chimera (Q37^NtL/I293^6.58S/T307^7.31N) (Homo sapiens, UniProt Q9GZQ6, I293S/Q37L/T307N); test: GloSensor forskolin-stimulated cAMP assay, NPFFR1 triple mutant (chimera Q37NtL/I2936.58S/T3077.31N); format: cell-based; details: HEK293T, 0.5 μM forskolin, three independent experiments
T2 construct: expressed in transfected cells; host or cells: HEK293T
Method: Figure 4 RF-amide ligand selectivity of NPFFR2 and NPFFR1. (A) Sequence alignment between human NPFFs and RFRPs, the endogenous ligands of NPFFRs, which share PXRF-NH2 motif at their C-terminus (shown in green letters). Key residues at the fifth and sixth positions from the C-terminus, are highlighted in bold. […] (B) The concentration-dependent response of various agonists on NPFFR1 was measured using a forskolin-stimulated cAMP assay. Data points represent the mean values from three independent experiments (each with technical triplicate), with error bars indicating SEM. Raw data were normalized to the vehicle-treated (0%) and 0.5 μM forskolin-treated (100%) responses. (C) Structural comparison between the binding modes of hNPSF to NPFFR2 and GnIH to NPFFR1. An AlphaFold2 prediction model of the GnIH–NPFFR1 complex was generated using the hNPSF–NPFFR2 complex structure as a template. The hydrophobicity of NPFFRs is shown with surface representation, where purple indicates hydrophilic regions and bronze indicates hydrophobic regions. […] (D) The cAMP response to the ligands hNPSF and GnIH was measured for both wild-type NPFFR1 and a mutant form of NPFFR1 using a forskolin-stimulated cAMP assay. […] Symbols represent mean values from three independent experiments, each conducted in technical triplicates, with error bars indicating SEM. Responses were normalized to vehicle-treated controls (0%) and 0.5 μM forskolin-treated controls (100%). Source data are available online for this figure.
To further validate whether these specific residues in NPFFR1 affect ligand selectivity, we generated a triple mutant of NPFFR1, in which residues Q37^Nt, I293^6.58, and T307^7.31 of NPFFR1 were replaced by the corresponding NPFFR2 residues, Leu, Ser, and Asn, respectively (Appendix Fig. S10). […]
HEK293T cells were seeded at a density of 6 × 10^5 cells per well in a six-well cell culture plate (SPL) and co-transfected with expression plasmids encoding GloSensor™ and each NPFFR construct, using 1 µg to 4 µg of DNA per well according to the Lipofectamine™ 2000 Transfection Reagent (Invitrogen) protocol. […] Luminescence signals were measured using a Mithras LB940 instrument (Berthold) with a measurement time of 1 s per well.
as §1, with “Results are presented as mean ± SEM from three independent biological replicates, each performed in duplicate or more. Error bars represent the SEM.” left out, “Significance levels were reported as follows: ns (not significant, P > 0.05); *P < 0.05; **P < 0.01; ***P < 0.001.” left out

[2] = NPFFR2 wild type (50% DNA treated), three independent experiments

T1 sequence (Q9Y5X5 103-522): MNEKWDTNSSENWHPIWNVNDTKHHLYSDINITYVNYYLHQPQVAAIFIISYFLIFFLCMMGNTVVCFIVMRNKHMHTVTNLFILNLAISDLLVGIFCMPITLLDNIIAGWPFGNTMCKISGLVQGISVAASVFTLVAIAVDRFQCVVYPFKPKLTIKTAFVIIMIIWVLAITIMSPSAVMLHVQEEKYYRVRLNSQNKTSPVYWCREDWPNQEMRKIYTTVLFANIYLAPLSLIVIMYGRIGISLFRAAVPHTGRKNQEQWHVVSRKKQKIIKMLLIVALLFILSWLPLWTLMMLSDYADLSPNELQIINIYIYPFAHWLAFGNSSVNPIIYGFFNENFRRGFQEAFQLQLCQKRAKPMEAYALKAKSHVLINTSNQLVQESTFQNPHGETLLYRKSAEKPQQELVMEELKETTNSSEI
T2 sequence (Q9GZQ6 whole entry Q37L/I293S/T307N): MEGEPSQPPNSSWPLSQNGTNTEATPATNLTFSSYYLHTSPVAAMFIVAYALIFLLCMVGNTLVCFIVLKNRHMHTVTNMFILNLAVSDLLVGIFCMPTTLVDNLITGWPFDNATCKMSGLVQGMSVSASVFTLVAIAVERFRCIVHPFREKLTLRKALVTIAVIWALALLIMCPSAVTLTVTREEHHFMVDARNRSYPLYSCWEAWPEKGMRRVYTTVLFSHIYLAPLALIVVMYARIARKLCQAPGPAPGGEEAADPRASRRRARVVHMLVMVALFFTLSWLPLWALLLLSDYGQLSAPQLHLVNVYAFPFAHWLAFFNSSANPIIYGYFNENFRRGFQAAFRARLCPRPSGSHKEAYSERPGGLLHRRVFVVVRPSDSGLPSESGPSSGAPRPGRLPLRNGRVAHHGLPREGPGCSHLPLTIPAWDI

An Emax (human NPFFR2; [2]) of 56 ± 2%, an Emax (human NPFFR2; NPFFR2 wild-type (100% DNA treated for hNPSF), mean of three independent experiments ± SEM) of 77 ± 3% and an EC50 (human NPFFR2; [2]) of 6.31 nM were found for `CC(C)C[C@H](NC(=O)[C@H](Cc1ccccc1)NC(=O)[C@H](C)NC(=O)[C@H](CCC(N)=O)NC(=O)[C@@H](N)CO)C(=O)N[C@@H](Cc1ccccc1)C(=O)N[C@@H](CCC(N)=O)C(=O)N1CCC[C@H]1C(=O)N[C@@H](CCC(N)=O)C(=O)N[C@@H](CCCNC(=N)N)C(=O)N[C@@H](Cc1ccccc1)C(N)=O` [hNPSF] in this work. It also gave an EC50 (human NPFFR2; NPFFR2 wild-type (100% DNA treated for hNPSF), three independent experiments) of 3.16 nM, an EC50 [1] of 31.6 nM and an Emax ([1]; HEK-293T) of 78 ± 2%.
